The text below walks through data of BindingDB's records for PubMed 11454901 (Shionogi, 2001).

This test deals with T1, Prostaglandin-H2 D-isomerase (Sus scrofa, UniProt Q29095).
T1 sequence (Q29095 whole entry): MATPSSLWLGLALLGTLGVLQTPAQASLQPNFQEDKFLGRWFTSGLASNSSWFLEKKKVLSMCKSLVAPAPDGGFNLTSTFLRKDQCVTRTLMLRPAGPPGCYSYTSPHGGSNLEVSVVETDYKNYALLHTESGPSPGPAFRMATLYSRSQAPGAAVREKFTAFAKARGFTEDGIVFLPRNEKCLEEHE

Broadly, the Ki is a measure of affinity in units of concentration, obtained from inhibition or displacement. Higher therefore signals a looser hold on the target. `CC1(C)[C@H]2C[C@H](C/C=C\CCCC(=O)O)[C@@H](NC(=O)c3csc4ccc(O)cc34)[C@@H]1C2` displayed an inhibition constant (Ki) of 193 nM.

Turning to `O=C(O)CCC/C=C\C[C@@H]1C(NS(=O)(=O)c2ccccc2)C2CC[C@@H]1C2` (single isomer, unassigned; (+)) [S 145], the affinity corresponds to a Ki of 0.49 nM.
